The target in assay [1] is Muscarinic acetylcholine receptor M3 (Homo sapiens, UniProt P20309). Kind of assay: Muscarinic Receptor Binding Assay: The study of binding to human muscarinic M1, M2, M3, M4 and M5 receptors was performed using commercial membranes (Perkin Elmer) prepared from CHO-K1 cells. Radioligand binding experiments were conducted in 96 polypropylene well plates in a total volume of 200 μl. All reagents were dissolved in assay binding buffer (PBS with calcium and magnesium, SIGMA), except compounds that were dissolved in DMSO 100%. Non-specific binding (NSB) was measured in the presence of 1 μM atropine. [3H]-NMS was used as the radioligand at a concentration of 1 nM for M2, M3 and M5 and 0.3 nM for M1 and M4. [3H]-NMS and antagonists were incubated with membranes that express human muscarinic receptors M1, M2, M3, M4 and M5 at concentrations of 8.1, 10, 4.9, 4.5 and 4.9 μg/well, respectively. After an incubation period of two hours with gentle shaking, 150 μl of the reaction mix were transferred to 96 GF/C filter plates (Millipore), previously treated with wash buffer (Tris 50 mM; NaCl 100 mM; pH: 7.4), containing 0.05% PEI (Sigma) during one hour. Bound and free [3H]-NMS were separated by rapid vacuum filtration in a manifold from Millipore and washed four times with ice cold wash buffer. After drying 30 min, 30 μl of OPTIPHASE Supermix were added to each well and radioactivity quantified using a Microbeta microplate scintillation counter. Format: cell-based.
Sequence of Muscarinic acetylcholine receptor M3 (P20309 whole entry): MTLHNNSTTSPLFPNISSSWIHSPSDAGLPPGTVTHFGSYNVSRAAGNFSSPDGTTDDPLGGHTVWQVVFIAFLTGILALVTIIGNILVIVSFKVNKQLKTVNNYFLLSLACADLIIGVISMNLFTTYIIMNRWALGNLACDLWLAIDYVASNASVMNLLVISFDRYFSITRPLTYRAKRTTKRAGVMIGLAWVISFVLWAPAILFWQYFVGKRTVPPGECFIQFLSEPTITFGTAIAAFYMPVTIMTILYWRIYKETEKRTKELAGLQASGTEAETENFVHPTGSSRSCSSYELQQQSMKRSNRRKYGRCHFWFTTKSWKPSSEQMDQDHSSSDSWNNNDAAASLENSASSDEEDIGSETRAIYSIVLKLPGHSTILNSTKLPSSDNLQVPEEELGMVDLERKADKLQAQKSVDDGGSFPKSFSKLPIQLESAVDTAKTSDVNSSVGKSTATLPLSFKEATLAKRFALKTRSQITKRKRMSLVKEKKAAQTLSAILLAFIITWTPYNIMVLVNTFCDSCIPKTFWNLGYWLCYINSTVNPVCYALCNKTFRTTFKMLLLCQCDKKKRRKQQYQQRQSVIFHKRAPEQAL

For assay [2], the target named is Beta-2 adrenergic receptor (Homo sapiens, UniProt P07550). Briefly: Adrenergic Receptor Binding Assay: The study of binding to human adrenergic beta1 and beta2 receptors was performed using commercial membranes prepared from Sf9 cells where they are overexpressed (Perkin Elmer). The membrane suspensions (16 μg/well for beta1 and 5 μg/well for beta2) in assay buffer (75 mM Tris/HCl with 12.5 mM MgCl2 and 2 mM EDTA pH=7.4) were incubated with 0.14 or 0.6 nM of 3H-CGP12177 (Amersham) for beta 1 and beta 2 receptors respectively in a final volume of 250 μl, in GFC Multiscreen 96 well plates (Millipore) previously treated with assay buffer containing 0.3% PEI (Sigma). Non specific binding was measured in the presence of 1 μM propanolol. Incubation was maintained for 60 minutes at room temperature and with gentle shaking. The binding reactions were terminated by filtration and washing with 2.5 volumes of Tris/HCl 50 mM pH=7.4. Format: cell membranes.
Sequence of Beta-2 adrenergic receptor (P07550 whole entry): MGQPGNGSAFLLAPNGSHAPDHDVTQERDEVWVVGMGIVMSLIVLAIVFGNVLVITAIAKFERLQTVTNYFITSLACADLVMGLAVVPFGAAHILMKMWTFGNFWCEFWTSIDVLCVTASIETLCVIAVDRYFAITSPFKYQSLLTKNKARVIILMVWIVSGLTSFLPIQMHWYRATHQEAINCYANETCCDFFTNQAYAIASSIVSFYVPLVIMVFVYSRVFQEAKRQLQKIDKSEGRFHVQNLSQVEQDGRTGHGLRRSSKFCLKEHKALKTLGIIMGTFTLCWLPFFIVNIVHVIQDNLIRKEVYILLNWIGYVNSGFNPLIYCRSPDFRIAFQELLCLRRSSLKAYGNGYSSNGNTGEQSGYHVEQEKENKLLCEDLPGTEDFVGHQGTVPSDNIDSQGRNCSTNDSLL

`CN(CCOc1ccc(CCNC[C@H](O)c2ccc(O)c3[nH]c(=O)ccc23)cc1)C1CCC(OC(=O)C(O)(c2cccs2)c2cccs2)CC1` (stereo partly specified): the IC50 came to 1.3 nM in assay [1] and 36 nM in assay [2].

As to `CN(CCC(=O)Nc1ccc(CNC[C@H](O)c2ccc(O)c3[nH]c(=O)ccc23)cc1Cl)[C@H]1CC[C@H](OC(=O)C(O)(c2cccs2)c2cccs2)CC1`, the IC50 in assay [1] was 2.2 nM; in assay [2] it was 6.7 nM.

Consider `COc1cc(NC(=O)CCN(C)[C@H]2CC[C@H](OC(=O)C(O)(c3cccs3)c3cccs3)CC2)c(Cl)cc1CNC[C@H](O)c1ccc(O)c2[nH]c(=O)ccc12`, for which the IC50 came out at 1.1 nM in assay [1] and 8.5 nM in assay [2].

The record behind these values is ChEMBL document CHEMBL3886646, “Cyclohexylamine derivatives having β2 adrenergic agonist and M3 muscarinic antagonist activities” (2016).
